By MBC is commonly meant the lowest tested concentration that kills the bacteria rather than only halting them. Broadly, the MIC is the lowest concentration that inhibits growth of the organism. A low value points to a more susceptible organism.

Results on four compounds are retold here after patent US20090030086A1, “ANTIMICROBIAL AGENTS” (priority 2005, published 2009).

For test [1], the system named is P. acnes NCTC 737. Briefly: Disc diffusion assay (DDA). Particulars: for DDA (diameter of zone of inhibition): P. acnes NCTC 737, unsupplemented agar, 200 μg per disc (2,6-dimethoxy-p-benzoquinone 100 μg). The test is classed as cell-based, Propionibacterium acnes. How it is done:
(§1) The Propionibacterium spp organisms were cultured and maintained on Wilkins-Chalgren Anaerobe Medium (agar and broth) at pH 6.0; cultures were incubated anaerobically at 37° C. for 72 hours.
(§2) A sterile paper disc was impregnated with a sample of the test compound and a minimum of 30 minutes allowed for the solvents to evaporate as far as possible. The disc was then placed on an agar plate onto which the test micro-organism had been inoculated. The plate was then incubated under the conditions described above, following which it was examined visually for signs of bacterial growth. […] The diameter of this zone of “inhibition” was measured using a ProtoCOL™ automated zone sizer (Synbiosis, Cambridge, UK).
(§3) The area of the zone of inhibition was calculated from the measured zone diameter (D) using the formula π(D/2)^2.
(§4) For most DDA assays, 200 μg of each compound was loaded onto each disc.
A general note: Agar diffusion results depend on both activity and mobility in agar.

Test [2] concerns P. acnes NCTC 737. Briefly: Supplemented disc diffusion assay. It is filed as cell-based, Propionibacterium acnes. Conditions: for zone of inhibition at 200 µg/disc: Cutibacterium acnes, NCTC737, 72 h; for DDA + lipid: Tween 80 at 1% v/v. As to the method:
as §1, §2
Performance under these conditions can provide a more reliable indication of activity on topical application. For assays conducted using S. aureus strains, the supplements were defibrinated horse blood (5% v/v), lipid (Tween™ 80 at 1% v/v) and sodium chloride (100 mM). For those using Propionibacterium spp. strains, the supplements were lipid (Tween™ 80 at 1% v/v) and sodium chloride (100 mM).
(§5) MIC, MBC and DDA assays, as described above, were carried out using a range of different benzoquinones and hydroquinones. Supplemented DDA assays, in the presence of salt and lipid, were also conducted.
as §4

Test [3] has as its system P. acnes NCTC 737. Briefly: MBC assay. It is filed as cell-based, Propionibacterium acnes. How it is done: as §1
(§6) This assay, normally carried out after an MIC assay, determines the minimum concentration of a compound that is lethal to the micro-organism being tested.
(§7) These samples were then individually sub-cultured on non-selective agar medium, under the incubation conditions described above. Following incubation they were examined visually for bacterial growth.
as §5

For test [4], the system named is P. acnes NCTC 737. Kind of test: MIC assay. It is filed as cell-based, Propionibacterium acnes. How it is done: 2. Propionibacterium spp.—the principal propionibacterial strain used in these studies was Propionibacterium acnes NCTC 737.
as §1
(§8) This is a standard international method for quantitatively assessing the antimicrobial activity of a compound in a liquid medium. The method used a 96-well microtitre plate, capable of holding about 200 μl of liquid per well. […] The culture media were as described above for the relevant test organisms.
(§9) The wells were inoculated with a liquid suspension of freshly grown micro-organism and incubated under the conditions described above. After incubation, the microtitre plate was examined visually (with the aid of a light box) for cloudiness in each well, which would indicate microbial growth. The MIC value was recorded as the lowest concentration of test compound required to inhibit microbial growth, i.e., the lowest concentration for which the liquid in the well remained clear.
(§10) The assays were conducted in duplicate and included both negative (culture medium only) and positive (culture medium, diluting solvent and inoculum) controls.
as §5

The test system of test [5] is S. aureus ATCC 29213. Briefly: MBC assay. The test is classed as cell-based, Staphylococcus aureus. How it is done:
(§11) The staphylococci and enterococci were cultured and maintained on Mueller-Hinton Medium (agar and broth) at pH 7.2; they were incubated aerobically at 37° C. for 24 hours.
as §6, §7
(§12) The following experiments all used S. aureus ATCC 29213 as the test organism. MIC, MBC and DDA assays, as described above, were carried out using a range of different benzoquinones and hydroquinones. Supplemented DDA assays, in the presence of salt, lipid and blood, were also conducted.

Test [6] relates to S. aureus ATCC 29213. Briefly: Disc diffusion assay (DDA). The test is classed as cell-based, Staphylococcus aureus. Particulars: S. aureus ATCC 29213; unsupplemented agar; 200 μg per disc (thymoquinone 50 μg, 2,6-dimethoxy-p-benzoquinone 100 μg). As to the method:
as §11, §2, §3, §4

Test [7] concerns S. aureus ATCC 29213. Briefly: MIC assay. Conditions: S. aureus ATCC 29213; Mueller-Hinton broth pH 7.2, aerobic, 37° C., 24 hours. It is filed as cell-based, Staphylococcus aureus. How it is done:
1. Staphylococcus aureus—the principal staphylococcal test micro-organism used in these studies was Staphylococcus aureus ATCC 29213. This strain is the one recommended for QC/QA purposes in Minimum Inhibitory Concentration (MIC) assays by the US Clinical and Laboratory Standards Institute (formerly the NCCLS), an FDA-recognised body.
as §11, §8, §9, §10, §12

[8] abbreviates: P. acnes NCTC 737, 200 μg per disc (2,6-dimethoxy-p-benzoquinone 100 μg).
Where [9] appears, read: P. acnes NCTC 737, Wilkins-Chalgren broth pH 6.0, anaerobic, 37° C., 72 hours.

In brackets after ≈: the same amount, converted by molar mass.

As to `O=C1C(Cl)=C(Cl)C(=O)C(Cl)=C1Cl` [tetrachloro-p-benzoquinone], the zone of inhibition at 200 µg/disc worked out at 11.6 mm with P. acnes NCTC 737 [1] (Cutibacterium acnes, NCTC737, read-out: DDA (diameter of zone of inhibition)); 12.7 mm in the test with P. acnes NCTC 737 [2] (read-out: DDA + lipid); 18.9 mm with P. acnes NCTC 737 [2] (read-out: DDA + salt). For the same compound, the minimal bactericidal concentration (MBC) in the test on P. acnes NCTC 737 [3] (Cutibacterium acnes, NCTC737) is 62.5 µg/mL (≈ 254 µM). Further, the MIC/MBC ratio in the test on P. acnes NCTC 737 [3] (P. acnes NCTC 737) came to 0.5. Also, it took 31.2 µg/mL (≈ 127 µM) to inhibit growth against P. acnes NCTC 737 [4] (Cutibacterium acnes, NCTC737, 72 h, pH 6) (MIC).
`Cc1cc(O)ccc1O` [2-methyl-p-hydroquinone]: the entries for the “DDA (diameter of zone of inhibition)” value with P. acnes NCTC 737 [1] and with S. aureus ATCC 29213 [6] were 0.0 mm and 25.70 mm, respectively. For the same compound, the results for the MIC/MBC ratio with S. aureus ATCC 29213 [5] and in the test on P. acnes NCTC 737 [3] (P. acnes NCTC 737) were 1 and 0.5, respectively. In the test on P. acnes NCTC 737 [2] (setting [8]), the “DDA + lipid” value is 13.07 mm. Further, the “DDA + salt” value with P. acnes NCTC 737 [2] (P. acnes NCTC 737, sodium chloride 100 mM, 200 μg per disc (2,6-dimethoxy-p-benzoquinone 100 μg)) was 0.0 mm. Besides, in the test with P. acnes NCTC 737 [3] (P. acnes NCTC 737), the MBC is 125 µg/mL (≈ 1010 µM). In the test with P. acnes NCTC 737 [4] (setting [9]), the minimum inhibitory concentration (MIC) came to 62.5 µg/mL (≈ 503 µM).
With `Cc1c(O)ccc(O)c1C` [2,3-dimethyl-p-hydroquinone], the “DDA (diameter of zone of inhibition)” value was determined as 18.75 mm in the test with P. acnes NCTC 737 [1] and 33.41 mm with S. aureus ATCC 29213 [6]. Moreover, the MBC in the test with S. aureus ATCC 29213 [5] came out at 7.8 µg/mL (≈ 56.5 µM). The MIC/MBC ratio in the test on S. aureus ATCC 29213 [5] is reported as 1; in the test on P. acnes NCTC 737 [3] (P. acnes NCTC 737) it was 0.5. Moreover, the MIC in the test with S. aureus ATCC 29213 [7] and in the test with P. acnes NCTC 737 [4] (setting [9]) was 7.8 µg/mL (≈ 56.5 µM) each time.
Take `CCc1cc(O)ccc1O` [2-ethyl-p-hydroquinone]: the “DDA (diameter of zone of inhibition)” value was determined as 9.90 mm with P. acnes NCTC 737 [1] and 21.06 mm with S. aureus ATCC 29213 [6]. The MIC/MBC ratio in the test with S. aureus ATCC 29213 [5] was 0.5; in the test on P. acnes NCTC 737 [3] (P. acnes NCTC 737), 0.25. In addition, the “DDA + lipid” value with P. acnes NCTC 737 [2] (setting [8]) stood at 0.0 mm. Besides, the MIC in the test with S. aureus ATCC 29213 [7] and in the test on P. acnes NCTC 737 [4] (setting [9]) was 7.8 µg/mL (≈ 56.5 µM) in each case.
